In publication PMC8147216, “Genotoxicity Evaluation of Propyl-Propane-Thiosulfinate (PTS) from Allium genus Essential Oils by a Combination of Micronucleus and Comet Assays in Rats” (Foods, 2021):
Where “and” joins values, the source holds several entries; their conditions need not be identical. Equal values may be shown once. Read-outs that look alike come from different tables or passages of the source.

Legend:
bone marrow erythrocytes = assay: In vivo micronucleus (MN) assay in bone marrow (OECD 474); set-up: species or system Wistar rats
Protocol: (§1) After acclimation time, 28 male and 28 female rats were randomly divided into control or treatment groups: the negative control (C−) (five male and five female rats), the solvent control (C sol) (five male and five female rats) treated with water with 0.3% Tween 80, and the positive control (C+) (three male and three female rats) treated with 200 mg/kg b.w. of ethylmethanesulfonate (EMS). The three PTS-treated groups (five male and five female rats per group) were exposed to 55.0, 17.4, and 5.5 mg of PTS/kg b.w. The number of animals was selected according to OECD 474 [27] and OECD 489 [28], which state five animals per sex and per group, and which also allow the use of at least three animals of both sexes treated with a positive control.
Doses were dissolved in water with Tween 80 (final concentration 0.3%) in a final volume of 1.5 mL. Tween 80 was previously used in genotoxicity in vivo studies by Mellado-Garcia et al. with the aim of better conveying alliaceous compounds with an oily nature. All groups were dosed at 0, 24, and 45 h via gavage using a stomach tube (Vygon, Ecouen, France) and were sacrificed 3 h after the final dose administration for the combined comet assay and MN endpoints. The time points of PTS administrations, as well as the timing of sacrifice, were selected following the criteria of OECD guideline 489 and Bowen et al..
(§2) Samples of the liver and stomach were extracted, and a small part of each tissue was immediately handled, as described in Section 2.6, for the standard and enzyme-modified comet assay. Moreover, blood samples were extracted and preserved in Vacutainer® sodium Heparin Tubes (Becton, Dickinson, Rutherford, NJ, USA). Furthermore, samples from the bone marrow of both femurs of each animal were gathered for the MN assay and were rapidly used to prepare smears (Figure 1). For the histopathologic study, sections of the liver and stomach were excised, rinsed with cold saline solution, and preserved in 10% buffered formalin for light microscopy, according to Llana-Ruiz-Cabello et al..
The MN test was performed according to the OECD guideline 474 [27] and Diez-Quijada et al.. The bone marrow of the femurs of the rats were mixed with a drop of fetal bovine serum. Therefore, slides were immersed in methanol, dried, and stained with Giemsa (Figure 1).
The polychromatic erythrocytes (PCE) among total erythrocytes (polychromatic and normochromic erythrocytes (NCE)) ratio and PCE for every NCE ratio were calculated by counting 500 erythrocytes per rat. The number of micronuclei found in immature erythrocytes was calculated by counting a total of 5000 […] per rat, and it was expressed as %MN.

L5178YTk+/− cells [1] = tested on: L5178YTk+/− cells; set-up: method as in PMID 27939830; details: cited from earlier work
rats [2] = assay: Observation of clinical signs after treatment; assay type: in vivo, Wistar rats; details: all levels of doses of PTS (5.5, 17.4, 55.0 mg/kg b.w.), oral gavage
Description: After treatment, each rat was observed twice daily for clinical signs such as changes in the eye, fur, or skin, changes in gait and posture, and secretions.

rats [3] = assay: Acute toxicity study to establish the maximum tolerated dose; assay type: in vivo
Protocol: The selection of PTS doses was calculated while taking into account a preceding acute toxicity study carried out by our research group, in which rats (8–10 weeks old) were administrated decreasing doses of PTS to establish the maximum tolerated dose (MTD). […] At that dose, no remarkable injury was detected in the treated rats, and no evidence of study-limiting toxicity was observed. Then, considering the ICH S2 Guidelines and the OECD protocols 474 [27] and 489 [28], the limit dose or MTD of 55.0 mg/kg b.w. was chosen as the highest dose, and two additional properly spaced dose levels (divided by √10) were also calculated. Consequently, the doses were set at 55.0, 17.4, or 5.5 mg of PTS/kg b.w.

L5178YTk+/− cells [4] = tested on: L5178YTk+/− cells; set-up: method as in PMID 27939830; details: 0.9–15.65 µM, 24 and 48 h of treatment; cited from earlier work
[5] = set-up: method as in PMID 27939830; details: 8.75–280 µM, presence or absence of S9; cited from earlier work
Caco-2 cells [6] = tested on: Caco-2 cells; set-up: method as in PMID 27939830; details: 24–48 h; cited from earlier work
male and female rats [7] = assay: Combined in vivo MN-comet assay (overall genotoxicity); details: male and female rats orally exposed, 55.0, 17.4 or 5.5 mg PTS/kg b.w.
Protocol: After acclimation time, 28 male and 28 female rats were randomly divided into control or treatment groups: the negative control (C−) (five male and five female rats), the solvent control (C sol) (five male and five female rats) treated with water with 0.3% Tween 80, and the positive control (C+) (three male and three female rats) treated with 200 mg/kg b.w. of ethylmethanesulfonate (EMS). The three PTS-treated groups (five male and five female rats per group) were exposed to 55.0, 17.4, and 5.5 mg of PTS/kg b.w. The number of animals was selected according to OECD 474 [27] and OECD 489 [28], which state five animals per sex and per group, and which also allow the use of at least three animals of both sexes treated with a positive control. Doses were dissolved in water with Tween 80 (final concentration 0.3%) in a final volume of 1.5 mL. Tween 80 was previously used in genotoxicity in vivo studies by Mellado-Garcia et al. with the aim of better conveying alliaceous compounds with an oily nature. All groups were dosed at 0, 24, and 45 h via gavage using a stomach tube (Vygon, Ecouen, France) and were sacrificed 3 h after the final dose administration for the combined comet assay and MN endpoints. The time points of PTS administrations, as well as the timing of sacrifice, were selected following the criteria of OECD guideline 489 and Bowen et al..

[8] = tested on: liver, stomach and blood cells; assay: In vivo enzyme-modified comet assay (Endo III, FPG); set-up: species or system Wistar rats; details: any tissue assayed (liver, stomach, blood); 5.5, 17.4, 55.0 mg/kg
Protocol: as §1
(§3) Doses were dissolved in water with Tween 80 (final concentration 0.3%) in a final volume of 1.5 mL. Tween 80 was previously used in genotoxicity in vivo studies by Mellado-Garcia et al. with the aim of better conveying alliaceous compounds with an oily nature. […]
(§4) At least 150 randomly selected nuclei per rat were analyzed with the image-analysis-software Comet Assay IV (Perceptive Instruments, UK). The %DNA in the tail, automatically acquired by the software, were used to define each of the comets analyzed. […] The medians of the scored comets were taken to describe each animal, and the means of each group of doses and controls are represented in Figure 2.

Caco-2 cells [9] = tested on: Caco-2 cells; set-up: method as in PMID 27939830; details: 24 and 48 h, highest concentration assayed; cited from earlier work
liver and stomach [10] = assay: Histopathological analysis of liver and stomach; assay type: in vivo, rats
Description: as §2
Liver and stomach samples were processed and observed under the microscope according to Diez-Quijada et al.. A semiquantitative evaluation of the severity of lesions was scored as follows: 0, no significant lesions (0%); 1, minimal (<10%); 2, mild (11–25%); 3, moderate (26–50%); 4, severe (51–75%); and 5: very severe (>75%). Samples were individually examined by two unbiased and experienced observers, a veterinary pathologist, and an investigator (V.M-H. and R.M.).

[11] = tested on: liver, stomach and blood cells; assay: In vivo standard comet assay (OECD 489); set-up: species or system Wistar rats; details: any doses assayed, either sex
Protocol: as §1, §3, §4

liver and stomach [12] = tested on: liver and stomach; set-up: method as in PMID 27085469; details: in vivo genotoxicity study; except glycogen accumulation in liver and slight degeneration in stomach at 55.0 mg/kg; cited from earlier work
[13] = set-up: method as in PMID 26607106; details: four in vitro genotoxicity assays; cited from earlier work
male and female rats [14] = tested on: male and female rats; set-up: method as in PMID 27085469; details: cited from earlier work
[15] = female, Wistar, rat, in vivo, 200 mg/kg, 48 h
[16] = male, Wistar, rat, in vivo, 200 mg/kg, 48 h
[17] = females, 5.5 mg/kg, gavage at 0, 24, 45 h, mean ± SD
[18] = females, 17.4 mg/kg, gavage at 0, 24, 45 h, mean ± SD
[19] = females, 55.0 mg/kg, gavage at 0, 24, 45 h, mean ± SD
[20] = males, 5.5 mg/kg, gavage at 0, 24, 45 h, mean ± SD
[21] = males, 17.4 mg/kg, gavage at 0, 24, 45 h, mean ± SD
[22] = males, 55.0 mg/kg, gavage at 0, 24, 45 h, mean ± SD

In the case of CCOS(C)(=O)=O [EMS, ethylmethanesulfonate, reference compound], the “%MN” value (bone marrow erythrocytes; [15]) is reported as 2.53 ± 0.38 %, the PCE/NCE (bone marrow erythrocytes; [15]) is reported as 0.53 ± 0.29 and the PCE/Total (bone marrow erythrocytes; [15]) is reported as 0.33 ± 0.12. The “%MN” value (bone marrow erythrocytes; [16]) was 1.46 ± 0.72 %, the PCE/NCE (bone marrow erythrocytes; [16]) was 0.54 ± 0.12 and the PCE/Total (bone marrow erythrocytes; [16]) was 0.35 ± 0.05.

For CCCS[S+]([O-])CCC (stereo not drawn) [PTS, Propyl-propanethiosulfinate], the “concentration with positive results in MN test in vitro” value (L5178YTk+/− cells [1]; metabolites (+S9)) is given as no less than 20 µM, the “concentration with positive results in MN test in vitro” value (L5178YTk+/− cells [1]; without S9, highest concentration assayed) is given as 17.25 µM and the clinical signs (rats [2]) is given as “No clinical signs were observed”. For the same compound, the mortality (rats [3]; initial dose 175.0 mg of PTS/kg b.w.) was “death of one of the three animals”, the “maximum tolerated dose (MTD)” value (rats [3]; rat, in vivo) was 55.0 mg of PTS/kg and the “mutagenicity in MLA assay” value (L5178YTk+/− cells [4]) was “not mutagenic”. For the same compound, the “mutagenicity in the Ames test” value [5] was “not mutagenic”, the “DNA damage after incubation with enzymes (Endo III or FPG)” value (Caco-2 cells [6]) was “no increase in DNA damage” and the “% of MN in immature erythrocytes vs controls” value (bone marrow erythrocytes; any groups (5.5, 17.4, 55 mg/kg) of either sex) was “not significantly changed”. The “%MN” value (bone marrow erythrocytes; [17]) was 0.86 ± 0.09%, the PCE/NCE (bone marrow erythrocytes; [17]) was 1.03 ± 0.43 and the PCE/Total (bone marrow erythrocytes; [17]) was 0.49 ± 0.10. The “%MN” value (bone marrow erythrocytes; [18]) was 0.74 ± 0.06%, the PCE/NCE (bone marrow erythrocytes; [18]) was 0.68 ± 0.36 and the PCE/Total (bone marrow erythrocytes; [18]) was 0.38 ± 0.13. The “%MN” value (bone marrow erythrocytes; [19]) was 1.03 ± 0.21%, the PCE/NCE (bone marrow erythrocytes; [19]) was 0.54 ± 0.28 and the PCE/Total (bone marrow erythrocytes; [19]) was 0.33 ± 0.11. For the same compound, the “%MN” value (bone marrow erythrocytes; [20]) was 0.46 ± 0.21%, the PCE/NCE (bone marrow erythrocytes; [20]) was 1.31 ± 0.30 and the PCE/Total (bone marrow erythrocytes; [20]) was 0.56 ± 0.05. For the same compound, the “%MN” value (bone marrow erythrocytes; [21]) was 0.72 ± 0.30%, the PCE/NCE (bone marrow erythrocytes; [21]) was 1.14 ± 0.34 and the PCE/Total (bone marrow erythrocytes; [21]) was 0.52 ± 0.08. The “%MN” value (bone marrow erythrocytes; [22]) was 0.46 ± 0.15%, the PCE/NCE (bone marrow erythrocytes; [22]) was 0.89 ± 0.21 and the PCE/Total (bone marrow erythrocytes; [22]) was 0.46 ± 0.06. For the same compound, the in vivo genotoxicity (male and female rats [7]) was “not genotoxic”, the “frequency of Endo III or FPG-sensitive sites” value [8] was “no remarkable changes” and the “concentration with positive results in standard comet assay” value (Caco-2 cells [9]) was 280 µM and 280.0 µM. For the same compound, the “severity of lesions in glandular stomach” value (liver and stomach [10]; 55.0 mg/kg, hypertrophy of mucus cells and flaking epithelium, p < 0.05 vs controls) was “minimal to mild”, the “severity of lesions in liver” value (liver and stomach [10]; 55.0 mg/kg, inflammatory infiltrates and centrilobular degeneration of hepatocytes, p < 0.05 vs controls) was “minimal (1, minimal (<10%))” and the “severity of changes in liver” value (liver and stomach [10]; 17.4 and 5.5 mg/kg, similar to negative and solvent controls) was “minimal (1, minimal (<10%))”. For the same compound, the “severity of histopathological changes in stomach” value (liver and stomach [10]; 17.4 and 5.5 mg/kg, statistically significant) was “minimal (1, minimal (<10%))”, the “lesions in the nonglandular stomach” value (liver and stomach [10]; positive control (EMS 200 mg/kg) and PTS 55.0 mg/kg groups, with pyogranulomatous inflammatory infiltrate) was “vacuolation of the squamous epithelium in the mucosa” and the “DNA strand breaks (%DNA in tail), standard comet assay” value [11] was “No observed DNA stand breaks”.

For CCCSS(=O)(=O)CCC [PTSO, propyl thiosulfinate oxide], the “histopathological damage in liver and stomach” value (liver and stomach [12]) is given as “no relevant damage”, the “in vitro genotoxicity responses” value [13] is given as “contradictory responses” and the in vivo genotoxicity (male and female rats [14]) is given as “lack of PTSO genotoxicity”.
